Patent US7220822B2, “CD28 mimetics for blocking T cell mediated immune reactions” (The Ohio State University, priority 2000, dated 2007)
Square brackets hold non-standard residues; d marks the D form. Peptide text beside a SMILES is read from it.

What was measured:
CD80-Ig = molecular target: T1, CD80-Ig (Homo sapiens, UniProt P33681); experiment: Direct kinetic analysis of CD28 peptide binding to immobilized CD80-Ig by surface plasmon resonance (BIACORE)
T1 construct: extracellular domain of CD80 fused with the constant region of mouse IgG1 heavy chain
T1 sequence (P33681 35-242 limits assumed, other chains not shown): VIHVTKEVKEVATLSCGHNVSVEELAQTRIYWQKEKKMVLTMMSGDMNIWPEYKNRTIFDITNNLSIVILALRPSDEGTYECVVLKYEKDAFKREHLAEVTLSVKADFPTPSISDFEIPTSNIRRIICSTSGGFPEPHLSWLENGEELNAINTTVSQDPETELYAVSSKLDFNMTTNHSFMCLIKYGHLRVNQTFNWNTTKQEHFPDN
Method: Binding experiments were performed by surface plasmon resonance (SPR) on an instrument sold under the trademark BIACORE™ from Pharmacia Biosensor (Uppasala, Sweden).
CD80-Ig (extracellular domain of CD80 fused with the constant region of mouse IgG1 heavy chain) at 35 μg/ml in 10 mM sodium acetate buffer, pH 4.2, was coupled to a research grade CM 5 sensor chip using a standard amine coupling procedure with the following modifications (38). To reduce the immobilization level of the ligand, the surface was activated for 3 (instead of 7) minutes with N-hydroxysuccinamide and […]. […] Following coupling, noncovalently bound ligand was removed by washing twice with 5 mM NaOH.
The analytes were also injected at the same concentration and injection times over an empty flow cell with nothing immobilized.
Data analysis was performed with BIAEVALUATION™ software version 2.1(Pharmacia Biosensor AB). […] Prior to kinetic analysis, data were adjusted to zero baseline level by subtracting the background responses obtained by injection of the analytes through a control flow cell with no ligand immobilized. First, the dissociation rate constant, kd, (units: s^−1) was determined, by fitting experimental data from the buffer flow part of the sensogram to the equation R(t)=R1*e^−kd*(t^0^−t^1^) (1) where t0 is the injection time, R1 is the response level at the start of dissociation time t1 and kd is the dissociation rate constant.
The kd value obtained was used as a constant during the analysis of the injection phase data. Binding data above the noise level was selected by converting the sensogram to a plot of the logarithm of the binding rate vs time (dR/dt vs. time). The ka was determined by nonlinear curve fitting of the following equation R(t)=Req*{1−e^−(k^a^*C+k^d^)*(t) (2) where R(t) is the response at time t, Req is the steady state response level, ka is the association rate constant (units: M^−1s^−1), kd is the dissociation rate constant and C is the concentration of the injected peptide analyte. An offset was added to account for the refractive index differences between the analyte and the running buffer.
After analyzing sensograms obtained from injections of increasing concentrations of peptide analytes or CD28-Ig, the experimental data was analyzed using the BIAsimulation software 2.1. A plot of the logarithm of (dR/dt) against time was calculated from the sensograms, and then the slopes at different concentrations were plotted against the concentrations of the peptide analyte. Different angles obtained of the linear lines represent the variation of affinities, which gives the association rate constant (ka) from the equation ln dR/dt=ln(kaCR max)−KaC+kd)t (4) where dR/dt is the rate of change of the SPR signal, C is the concentration of the analyte, Rmax is the maximum analyte binding capacity in RU and R is the SPR signal in RU at time t. The dissociation rate constant is obtained from the equation Kd=kd/ka (5)

[1] = system: CD4+ LNC from Vα4/Vβ8.2 TCR transgenic mice; format: cell-based, mouse; conditions: CD4+ LNC and spleen cells, NAc 1-11 10 μg/ml, all concentrations used
Method: The in vitro effect of varying concentration of the CD 28 peptide mimetics on CD4+ lymph node cells and spleen cells from transgenic mice bearing the Vα 4 Vβ8.2 TCR specific for MBP Ac 1-11 was determined.
CD4+ T cells were purified from pooled peripheral lymph nodes (inguinal, axillary, brachial, cervical, popliteal), and mesenteric lymph nodes and spleen of 6–8 wk old Vα4/Vβ8.2 TCR transgenic mice by positive selection. Single cell suspensions were prepared by lympholyte M gradient, washed, counted and incubated with magnetic bead conjugated anti-mouse CD4 (L3T4) (Miltenyi Biotech Corporation) followed by positive selection using magnetic selection columns. Purity of the CD4^+ cells was greater than 90% as assessed by staining with FITC labeled anti-mouseVβ8.2 mAb (Pharmingen). During the selection process, T cells maintain a naïve phenotype with no evidence for T cell activation as measured by proliferation in culture. Purified CD4+ T-cells (5×10^4 cells/well) were cultured together with wild type splenocytes from B10.PL mice as APC's (10^5 cells/well) in RPMI 1640 containing 10% FCS, 25 mM HEPES, 2 mM L-glutamine, 50 U/ml penicillin, 50 μg/ml streptomycin, and 5×10–5 M 2-ME in round-bottom 96-well plates and MBP (40 μg/ml) or MBP NAc1-11 (10 μg/ml) or media only in the presence or absence of synthetic CD28 peptide analogues at different concentrations in triplicate wells for 72 h, including a final 18-h pulse with [^3H] thymidine. Cultures were harvested onto glass-fiber mats using a Skatron harvester (Skatron, Sterling, Va.) and were counted by liquid scintillation on LKB Betaplate (LKB, Rockville, Md.). The means of the triplicate were determined and the results are expressed as delta cpm (mean counts per minute of cultures with Ag-mean counts per minute of cultures with medium alone)±SD.

B10.PL mice with EAE = experiment: EAE in B10.PL mice immunized with GP-MBP in CFA, clinical score; format: in vivo, mouse; conditions: for mean maximal clinical score: single i.v. 500 μg on day 14 post-immunization (established EAE); for maximum disease incidence / maximum mean cumulative score per day: single i.v. 500 μg on the day of immunization
Method: Female B10.PL mice (6–8 wk old) were obtained from The Jackson laboratory (Bar Harbor, Me.) and housed at the Ohio State University, (Columbus, Ohio).
Mice were injected subcutaneously over four sites on the flank with an emulsion containing 200 μg of guinea-pig-MBP in CFA containing 200 μg heat killed Mycobacterium tuberculosis, Jamaica strain. Pertussis toxin (List Biological, Campbell, Calif.) at 150 ng in 0.2 ml of PBS was given intraperitoneally at the time of immunization and 48 hours later. Animals were observed daily for clinical signs and scored as follows: 1, limp tail or waddling gait with tail tonicity; 2, waddling gait with limp tail (ataxia); 2.5 ataxia with partial paralysis of one limb, 3, partial hind-limb paralysis, 3.5 full paralysis of one limb with partial paralysis of the second limb, 4, full paralysis of two limbs, 4.5 moribund and 5, death. All mice immunized with MBP (200 μg) in CFA developed clinical disease varying between ataxia and complete hind limb paralysis by day 14 post-immunization. They were then distributed randomly into six groups with mean clinical score of each group approximately the same.
Groups of mice were left untreated or injected intravenously with 500 μg of EL CD28 or RI CD28 peptide mimetics, or LCD28, RLCD28 and DCD28 peptides. The mean clinical score of untreated mice continued to increase reaching a maximum of 3.4 on day 20. Similarly the disease continued to progress in mice treated with LCD28, RLCD28 and DCD28, reaching mean maximal clinical score of 3.8 (day 18), 3.4 (day 16 ) and 3.7 (day 16) respectively.
The biological activity of synthetic CD28 peptide analogues during antigen priming in vivo in EAE was then shown. B10.PL mice immunized with GP-MBP (200 μg) in CFA were either left untreated or injected intravenously 500 μg of EL CD28 or RI CD28 peptide mimetics or LCD28, RLCD28 and DCD28 peptides on the day of immunization. The vehicle treated mice and mice treated with: LCD28, RL CD28 and D CD28 peptide had maximum disease incidence of 100%, 100%, 91.5% and 91.5% and maximum mean cumulative score per day of 1.9, 1.8, 1.7 and 2 respectively. […] The effect of RI CD28 peptide injection lasted for the duration of observation (37 days) in one experiment.

[2] = system: lymph node cells of MBP-primed mice; experiment: IL-2 ELISPOT of draining lymph node cells from peptide-treated MBP-immunized mice; format: in vivo, mouse; conditions: mice treated on day 0 of immunization, ELISPOT on restimulation
Method: Ninety-six well unifilter plates (Polyfiltronics, Rockland, Md.) were coated overnight at 4° C. with rat anti-mouse IL-2 (Clone JES6-1A12) (Pharmingen, Calif.) at 4 μg/ml. The plates were then washed 4× with sterile PBS and blocked with 1% BSA in DMEM for 2 h at room temperature. Subsequently, isolated single cell suspensions of CD4+ LNC (5×10^6 cells/ml) and splenocytes (10×10^6 cells/ml) were added with the antigens and CD28 peptides under the conditions as specified for the proliferation assays. After 24 h of culture in the incubator, the cells were removed by washing 3× with PBS and 4× with PBS containing Tween (1:2000) (PBST). Then biotinylated anti mouse-IL-2 (Clone JES6-5H4) (Pharmingen, Calif.) 2 μg/ml was added and incubated at 4° C. overnight. After washing 3× with PBST and 3× with PBS, goat anti-biotin antibody conjugated to alkaline phosphatase (Vector Laboratories Inc, Burlingame, Calif.) diluted to 1:1000 in PBST containing 1% BSA was added and incubated for 2 h at room temperature. The spots were visualized by adding BCIP/NBT phosphatase substrate (Kirkeguard & Perry Laboratories, Gaithesburg, Md.). Image analysis of ELISA spot assays was performed on a Series 1 Immunospot Image Analyzer (Autoimmun Diagnostika (US) Inc.) customized for analyzing ELISA spots to meet objective criteria for size, chromatic density, shape and color.
MBP reactive T cells that induce EAE are known to display a Th1 phenotype secreting the proinflammatory cytokines IL-2, […] and TNF-β (36. Kay, B. K., M. P. Williamson, and M. Sudol. 2000. Faseb J 14, no. 2:231). ELISPOT assay was used to assess in vitro cytokine production by draining lymph node cells and splenocytes upon restimulation from in vivo MBP-primed T cells. Mice were treated as described in Example 3, on day 0 of immunization.

maximum response units obtained for binding to CD80-Ig (CD80-Ig; SPR direct binding) | binding to CD80-Ig (in words) (CD80-Ig; data not shown) | Molecule | proliferative response / inhibition of T cell proliferation (in words) [1] | mean maximal clinical score (B10.PL mice with EAE) | maximum disease incidence (B10.PL mice with EAE) | maximum mean cumulative score per day (B10.PL mice with EAE) | frequency of IL-2 secreting lymph node cells [2]
478 RU |  | CC[C@H](C)[C@H](NC(=O)[C@@H](NC(=O)CNC(=O)[C@H](CC(N)=O)NC(=O)[C@H](CO)NC(=O)[C@H](CCCNC(=N)N)NC(=O)[C@H](CCC(=O)O)NC(=O)[C@H](CC(N)=O)NC(=O)[C@H](CC(=O)O)NC(=O)[C@H](CC(C)C)NC(=O)[C@H](Cc1ccc(O)cc1)NC(=O)[C@@H]1CCCN1C(=O)[C@@H]1CCCN1C(=O)[C@@H]1CCCN1C(=O)[C@H](Cc1ccc(O)cc1)NC(=O)[C@H](CCSC)NC(=O)[C@H](Cc1ccccc1)NC(=O)[C@H](CCC(=O)O)NC(=O)[C@@H](NC(=O)[C@@H](N)CCCCN)[C@@H](C)CC)[C@@H](C)O)C(=O)O [L CD28, NH2KIEFMYPPPYLDNERSNGTICOOH] (H-KIEFMYPPPYLDNERSNGTI-OH) | significantly less | 3.8 | 100% | 1.8 | 
 |  | CH3COD[KIEFMYPPPYLDNERSNGTI]DCONH2 (Ac-[dK][dI][dE][dF][dM][dY][dP][dP][dP][dY][dL][dD][dN][dE][dR][dS][dN]G[dT][dI]-NH2) [D CD28, D-peptide (Control), reference compound] | did not show inhibition | 3.7 | 91.5% | 2 | 2675+/−14.2
 |  | CH3COL[ITGNSRENDLYPPPYMFEIK]LCONH2 (Ac-ITGNSRENDLYPPPYMFEIK-NH2) [RL CD28, Reverse-L-peptide (Control), reference compound] | did not show inhibition | 3.4 | 91.5% | 1.7 | 3386+/−23.3
 | did not bind | MYPPPY (listed as Homo sapiens) [hexapeptide, reference compound] | did not show inhibition |  |  |  | 
